Experimental data taken from publication PMC10167348, “Structural mechanisms of TRPM7 activation and inhibition” (Nature Communications, 2023).
Several values for one entry are separate records, joined by “and”; a condition that tells them apart may be missing. Equal values may be shown once.

Experiments:
Assay in all cases: Aequorin-based Ca2+ influx assay, activation by naltriben
Type in all cases: cell-based
TRPM7-D670A = target: T1, TRPM7-D670A (Mus musculus, UniProt Q923J1, D670A); conditions: for TRPM7 activation, fold: replicate values
T1 construct: expressed in transfected cells; host or cells: HEK 293T
T1 sequence (Q923J1 whole entry D670A): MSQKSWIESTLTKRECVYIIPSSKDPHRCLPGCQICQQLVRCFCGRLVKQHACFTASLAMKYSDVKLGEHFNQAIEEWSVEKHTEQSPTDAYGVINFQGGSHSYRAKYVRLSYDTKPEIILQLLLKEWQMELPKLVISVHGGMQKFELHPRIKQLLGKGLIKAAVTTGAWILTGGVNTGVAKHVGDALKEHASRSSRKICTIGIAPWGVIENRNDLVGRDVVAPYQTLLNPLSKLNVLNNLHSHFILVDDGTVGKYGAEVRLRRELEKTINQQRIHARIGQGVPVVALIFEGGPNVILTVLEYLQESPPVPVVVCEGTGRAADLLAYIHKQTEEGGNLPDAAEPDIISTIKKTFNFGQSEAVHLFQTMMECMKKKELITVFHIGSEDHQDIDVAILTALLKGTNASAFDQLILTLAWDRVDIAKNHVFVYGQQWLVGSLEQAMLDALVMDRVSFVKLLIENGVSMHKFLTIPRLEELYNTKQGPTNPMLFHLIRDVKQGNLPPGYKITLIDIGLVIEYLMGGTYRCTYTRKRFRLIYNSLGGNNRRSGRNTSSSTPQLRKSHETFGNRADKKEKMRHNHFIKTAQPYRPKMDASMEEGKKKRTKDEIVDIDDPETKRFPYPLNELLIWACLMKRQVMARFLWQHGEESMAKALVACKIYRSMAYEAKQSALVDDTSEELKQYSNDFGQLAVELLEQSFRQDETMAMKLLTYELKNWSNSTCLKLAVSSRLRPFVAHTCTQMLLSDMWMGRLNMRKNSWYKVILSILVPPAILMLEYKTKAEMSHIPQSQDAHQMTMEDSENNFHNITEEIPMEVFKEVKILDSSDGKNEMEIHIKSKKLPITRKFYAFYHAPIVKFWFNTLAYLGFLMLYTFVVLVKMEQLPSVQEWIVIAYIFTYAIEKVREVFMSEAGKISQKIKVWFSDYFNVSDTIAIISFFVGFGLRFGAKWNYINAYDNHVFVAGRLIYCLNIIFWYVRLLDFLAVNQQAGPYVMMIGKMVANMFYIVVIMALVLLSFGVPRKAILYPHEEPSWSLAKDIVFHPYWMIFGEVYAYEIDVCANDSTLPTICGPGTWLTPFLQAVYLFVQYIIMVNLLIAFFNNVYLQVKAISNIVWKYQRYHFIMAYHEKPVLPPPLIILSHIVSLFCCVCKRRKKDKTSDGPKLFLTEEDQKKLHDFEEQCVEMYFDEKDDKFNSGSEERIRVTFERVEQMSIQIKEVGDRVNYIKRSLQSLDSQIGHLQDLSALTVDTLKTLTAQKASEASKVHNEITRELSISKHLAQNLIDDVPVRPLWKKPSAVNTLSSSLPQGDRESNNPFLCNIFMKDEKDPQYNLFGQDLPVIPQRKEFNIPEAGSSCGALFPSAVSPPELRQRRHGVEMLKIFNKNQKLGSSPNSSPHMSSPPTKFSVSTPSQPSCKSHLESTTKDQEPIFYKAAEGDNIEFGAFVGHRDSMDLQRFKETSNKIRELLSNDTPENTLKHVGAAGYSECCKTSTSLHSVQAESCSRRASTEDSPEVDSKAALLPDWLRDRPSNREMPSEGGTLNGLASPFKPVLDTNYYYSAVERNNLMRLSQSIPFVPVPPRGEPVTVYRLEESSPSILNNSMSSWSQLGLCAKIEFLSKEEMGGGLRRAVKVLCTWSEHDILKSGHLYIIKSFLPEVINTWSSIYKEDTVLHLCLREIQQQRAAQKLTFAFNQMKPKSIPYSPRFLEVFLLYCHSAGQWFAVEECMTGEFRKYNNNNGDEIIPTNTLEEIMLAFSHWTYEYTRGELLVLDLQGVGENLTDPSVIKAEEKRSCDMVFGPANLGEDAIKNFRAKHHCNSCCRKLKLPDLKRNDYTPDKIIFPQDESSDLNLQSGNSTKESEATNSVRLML
Experimental: (§1) Measurements of [Ca^2+]i were performed as reported previously with several modifications[2],[52],[54]. HEK 293T cells (mycoplasma test negative, ATCC #CRL3216) were maintained at 37 °C and 5% CO2 in DMEM supplemented with 10% fetal calf serum, 100 µg/ml streptomycin and 100 U/ml penicillin (all from Thermo Fisher Scientific). Cells cultured in six-well plates (~60% confluence) were transfected with 2 µg/dish Trpm7 plasmid DNA and 0.1 µg/dish pG5A plasmid DNA encoding eGFP fused to Aequorea victoria aequorin, using Lipofectamine 2000 (Thermo Fisher Scientific). Twenty-four hours after transfection, the cells were washed with Mg^2+-free HEPES-buffered saline (Mg^2+-free HBS) containing 140 mM NaCl, 6 mM KCl, 0.5 mM CaCl2, 10 mM HEPES (pH 7.4) and 5 mM glucose, and mechanically resuspended in the Mg^2+-free HBS. For reconstitution of aequorin, cell suspensions were incubated with 5 µM coelenterazine (Biaffin GmbH) in the Mg^2+-free HBS for 30 min at room temperature. Cells were washed twice by centrifugation at 600 rpm for 5 min (Heraeus Pico 17 microcentrifuge, Thermo Fisher Scientific), resuspended in the Mg^2+-free HBS and aliquoted into 96-well plates (1 × 10^5 cells per well). Luminescence was detected at room temperature using a FLUOstar OPTIMA microplate reader (BMG LABTECH GmbH). To monitor the NS8593- and VER155008-induced inhibition of TRPM7-mediated Ca^2+ influx, the extracellular concentration of Ca^2+ was increased to 5 mM by injecting the CaCl2-containing Mg^2+-free HBS in the absence or presence of the inhibitors. […] To study activation by naltriben, TRPM7-transfected cells were exposed to Mg^2+-free HBS containing different concentrations of the agonist. The experiments were terminated by lysing cells with 0.1% (v/v) Triton X-100 in the Mg^2+-free HBS to record the total bioluminescence. The bioluminescence rates (counts/s) were analyzed at 1-s intervals and calibrated as [Ca^2+]i values using the following equation:1 p[Ca^2+]i=0.332588(−log(k))+5.5593 where k represents the rate of aequorin consumption, i.e., counts/s divided by the total number of counts.
(§2) To determine the IC50 values for NS8593 and VER155008 (EC50 for naltriben), the data were fitted with the following logistic equation:2 Ec=Emin+Emax+Emin/1+c^h/IC50^h where E(c) is the functional effect at the concentration c of the compound, Emin is the minimal effect, Emax is the maximal effect, IC50 (EC50) is the concentration of the compound that produces the half-maximal effect, and h is the Hill coefficient. Fitting of dose-response curves was performed using GraphPad Prism 8.4.0. Data are presented as the mean ± SEM.

TRPM7-L671A = target: T2, TRPM7-L671A (Mus musculus, UniProt Q923J1, L671A)
T2 construct: expressed in transfected cells; host or cells: HEK 293T
T2 sequence (Q923J1 whole entry L671A): as the sequence (Q923J1 whole entry D670A) above, with A670D, L671A counted along it
Experimental: as §1, §2

TRPM7-S744A = target: T3, TRPM7-S744A (Mus musculus, UniProt Q923J1, S744A)
T3 construct: expressed in transfected cells; host or cells: HEK 293T
T3 sequence (Q923J1 whole entry S744A): as the sequence (Q923J1 whole entry D670A) above, with A670D, S744A counted along it
Experimental: as §1, §2

Question: How did the EC50 (TRPM7-D670A) turn out when Oc1ccc2c3c1O[C@H]1c4oc5ccccc5c4C[C@@]4(O)[C@@H](C2)N(CC2CC2)CC[C@]314 [Naltriben, naltriben] was run?
Answer: The EC50 was 117 ± 32.4 µM.

Question: What about the “TRPM7 activation, fold” value (TRPM7-D670A; D670A, [Naltriben] 10 µM) of the same molecule?
Answer: Its value is 1.01 fold and 1.02 fold and 1.12 fold.

Question: And the “TRPM7 activation, fold” value (TRPM7-D670A; D670A, [Naltriben] 20 µM)?
Answer: Its value is 1.24 fold and 1.22 fold and 1.21 fold.

Question: And the “TRPM7 activation, fold” value (TRPM7-D670A; D670A, [Naltriben] 30 µM)?
Answer: Its value is 1.55 fold and 1.37 fold (2×).

Question: What about the “TRPM7 activation, fold” value (TRPM7-D670A; D670A, [Naltriben] 40 µM) of the same molecule?
Answer: Its value is 1.67 fold and 1.48 fold and 1.56 fold.

Question: And the “TRPM7 activation, fold” value (TRPM7-D670A; D670A, [Naltriben] 50 µM)?
Answer: The value was 2.45 fold and 1.56 fold and 1.72 fold.

Question: And the “TRPM7 activation, fold” value (TRPM7-D670A; D670A, [Naltriben] 100 µM)?
Answer: Its value is 2.45 fold and 2.03 fold and 2.05 fold.

Question: And the “TRPM7 activation, fold” value (TRPM7-D670A; D670A, [Naltriben] 200 µM)?
Answer: Its value is 3.19 fold and 2.69 fold and 2.68 fold.

Question: And the “TRPM7 activation, fold” value (TRPM7-D670A; D670A, [Naltriben] 300 µM)?
Answer: Its value is 3.34 fold and 3.00 fold and 2.98 fold.

Question: What about the “TRPM7 activation, fold” value (TRPM7-D670A; D670A, [Naltriben] 400 µM) of the same molecule?
Answer: The value was 3.55 fold and 3.27 fold and 3.16 fold.

Question: What about the “TRPM7 activation, fold” value (TRPM7-D670A; D670A, [Naltriben] 500 µM) of the same molecule?
Answer: The value was 3.71 fold and 3.18 fold and 3.31 fold.

Question: What about the Hill coefficient (TRPM7-D670A; D670A, agonist, mean ± SEM) of the same molecule?
Answer: Its Hill coefficient is 1.17 ± 0.24.

Question: And the EC50 (TRPM7-L671A)?
Answer: Its EC50 is 145 ± 22.9 µM.

Question: What about the Hill coefficient (TRPM7-L671A; L671A, agonist, mean ± SEM) of the same molecule?
Answer: Its Hill coefficient is 1.68 ± 0.32.

Question: What about the EC50 (TRPM7-S744A) of the same molecule?
Answer: The EC50 was 71.8 ± 9.7 µM.

Question: And the Hill coefficient (TRPM7-S744A; S744A, agonist, mean ± SEM)?
Answer: Its Hill coefficient is 1.48 ± 0.25.
